{
  "source": "paper PMC9780888",
  "about": "“4-Isobutylmethcathinone—A Novel Synthetic Cathinone with High In Vitro Cytotoxicity and Strong Receptor Binding Preference of Enantiomers” (Pharmaceuticals, 2022)",
  "key": {"MRC-5": {"system": "MRC-5", "experiment": "WST-1 viability assay, MRC-5 cells", "format": "cell-based, human", "conditions": "MRC-5, 72 h incubation, WST-1, four replicates", "experimental": "(§1) Based on the novelty of the IMBcat compound, we aimed to evaluate its in vitro cytotoxicity in selected model cell lines as well as to determine the toxicity of the IBMcat enantiomers, since both the chemical structure and chirality of compounds could play a role in their bioactivity (Table 2). The cytotoxic profile of the IBMcat was determined by a WST-1 viability assay after 72-h treatment. For this purpose, cell lines derived from distinct tissues, often affected by NPSs, were chosen, i.e., cells of kidney, hepatic, neural, urinary, and intestinal origin as well as keratinocytes and primary fibroblasts (HEK 293T, Hep G2, HMC-3, SH-SY5Y, 5637, CaCo-2, HaCaT, MRC-5, and BJ, respectively). The cytotoxicity of IBMcat and its enantiomers was concentration- and cell-line dependent, the IC50 values, which were in the micromolar range, are given in Table 2. […] This was followed by embryonic kidney cells HEK 293T (immortalized), in which the toxicity ranged between a concentration of 123 and 192 µM.\n(§2) In this study, the following cell lines were used: HEK 293T, Hep G2, HMC-3, SH-SY5Y, 5637, CaCo-2, HaCaT, MRC-5, BJ, and L929. […] The selected cell lines were chosen so that not only primary noncancerous cells are evaluated but also cells derived from tissues, which are the most often affected by novel synthetic drugs, i.e., kidney, liver, urinary bladder, and nervous tissue. […]\n(§3) The cytotoxicity of IBMCat was evaluated in vitro by using a WST-1 viability assay (Sigma-Aldrich, Saint Louis, MO, USA) based on the transformation of a tetrazolium salt into colored formazan in metabolically active cells. […] After 72 h of additional incubation of the cells, their viability was determined by WST-1. […] The cells were incubated for 2 h, after which absorbance of the raised formazan was measured spectrophotometrically at 450 nm (reference wavelength of 630 nm) using a UV-Vis spectrometer (Bio-Rad Laboratories, Hercules, CA, USA). […] The half-maximal inhibitory concentrations (IC50) were calculated from the measured dose–response curves by AAT Bioquest."}, "BJ": {"system": "BJ", "experiment": "WST-1 viability assay, BJ cells", "format": "cell-based, human", "conditions": "72 h incubation, WST-1, four replicates", "experimental": "as §1, §2, §3"}},
  "note": "Counter-ions that a name gives are not always drawn.",
  "data": [
    {"smiles": "CNC(C)C(=O)c1ccc(CC(C)C)cc1.Cl", "note": "(stereo not drawn) [IBMcat, 4-isobutylmethcathinone hydrochloride]", "values": [
      {"measurement": "IC50", "setting": "MRC-5; Homo sapiens, MRC5", "result": "635 ± 17", "unit": "µM"},
      {"measurement": "IC50", "setting": "BJ; Homo sapiens", "result": "749 ± 102", "unit": "µM"}
    ]},
    {"smiles": "CN[C@H](C)C(=O)c1ccc(CC(C)C)cc1", "note": "[R-IBMCat]", "values": [
      {"measurement": "IC50", "setting": "MRC-5", "result": "515 ± 34", "unit": "µM"},
      {"measurement": "IC50", "setting": "BJ", "result": "698 ± 88", "unit": "µM"}
    ]},
    {"smiles": "CN[C@@H](C)C(=O)c1ccc(CC(C)C)cc1", "note": "[S-IBMCat, (S)-4-isobutylmethcathinone hydrochloride]", "values": [
      {"measurement": "IC50", "setting": "MRC-5; Homo sapiens, MRC5", "result": "530 ± 35", "unit": "µM"},
      {"measurement": "IC50", "setting": "BJ; Homo sapiens", "result": "685 ± 41", "unit": "µM"}
    ]}
  ]
}
